Reference: patent US5328840A, “Method for preparing targeted carrier erythrocytes” (The Research Foundation of the State University of New York, priority 1991, dated 1994)
“Also recorded” adds a separate entry of the source. Where two headings read alike, the source gives them in different places. Where a SMILES comes first, the peptide text is derived from it.

Columns and labels:
platelets [1] = assay: Release of 14C-serotonin from platelets; assay type: cell-based; conditions: acetylsalicylic acid 50 μM; PGE1 0.14 μM; 8 min
Protocol: Citrated PRP (3×10^11 /l) was incubated with ^14 C-5-serotonin (10 μCi/ml stock solution, 20-25 nCi/ml final concentration, New England Nuclear, Boston, Mass.) for 30 min at 22° C. with gentle stirring (~100 rpm) using a teflon coated stir bar. In order to maintain the PRP pH constant at ~7.60, the PRP was overlayed with 5% CO2, 95% air just before the incubation began. Serotonin uptake was terminated by adding 5 μM imipramine (Sigma) and stirring was continued for another 5 min. Total uptake under these conditions was 70-80% of the added serotonin. The agglutination assay was performed in quadruplicate in the same way as described above except that after 8 min of shaking, 70 μl of cold 2% paraformaldehyde in PBS, pH 7.4 was added to the wells and the microtiter plate was centrifuged at 1000×g for 5 min at 22° C. The top 50 μl of the supernatant (total volume in each well was 145 μl) was added to scintillation fluid and counted in a scintillation spectrometer. In some experiments the PRP was preincubated with acetylsalicylic acid (50 μM) or PGE1 (0.14 μM) during the serotonin uptake.

[2] = for solubility in 0.1% trifluoroacetic acid: pH 2.5; for solubility in the acetate buffer: pH 6.5
[3] = Solubility of (G)n-RGDF peptides in buffers
platelets [4] = assay: Agglutination assay with peptide-coated beads; assay type: cell-based
Protocol: Biol. 109:863) was a gift of Dr. Kenneth Yamada, National Institutes of Health, Bethesda, Md. The platelets were incubated with the antibody concentrations indicated for 30-60 min before the addition of the beads. In the case of PAC-1, which binds only to activated platelets (Shattil et al. 1985, J. Biol. Chem. 260:1107), the platelets were activated with ADP (6.7 μM final concentration) without stirring for 5 min before adding the antibody.
To 70 μl of PRP or GFP at a count of 3×10^11 platelets/l in a 96 well round bottom polystyrene microtiter plate, 5 μl of a well mixed bead suspension (0.22 mg beads) was added and the plate was rotated at 260 rpm (Orbit shaker, Lab Line Instruments, Melrose Park, Ill.) for various times between 0 and 30 min (0.5, 1, 2, 4, 6, 8, 10, 12, 15, 20, 25, 30 min). […] Platelet counts in the supernatant plasma or buffer were measured by removing 5 μl from the supernatant after allowing the bead agglutinates to settle for 3 min. […] In some experiments, platelets were activated with 6.7 μM ADP 30 sec prior to the addition of the beads; in other experiments the platelets were preincubated with 0.14 μM PGE1 (Sigma, St. Louis) for 30 min.

activated platelets = assay: Platelet-thrombo-erythrocyte co-aggregation assay (microtiter); assay type: cell-based
Protocol: To assess the ability of thrombo-erythrocytes to enter into developing platelet aggregates, a microtiter assay was developed. Platelet-rich plasma (PRP) was prepared from blood anticoagulated with 0.01 volume 40% sodium citrate and adjusted to a platelet count of 3.5×10^8 /ml with platelet-poor plasma. Aliquots (50 or 100 μl) of the PRP were added to microtiter wells and then 5 or 10 μl of ADP (100 μM stock solution) was added to selected wells, followed by the addition of 5 or 10 μl of thrombo-erythrocytes (10% hematocrit in buffer A). The microtiter plate was then rotated at 270 rpm at 22° C. for variable periods of time between 0.5 and 20 min and the extent of platelet-thrombo-erythrocytecoaggregation was assessed visually on a scale from 0-4+ with the aid of a magnifying mirror. To assess the specificity of the reaction, in some experiments the PRP was preincubated with 10 mM EDTA, 300 μg/ml of the peptide RGDF, or 20 μg/ml of an antibody directed against both the GPIIb/IIIa receptor and the αv β3 vitronectin receptor that blocks fibrinogen binding to activated platelets (7E3) (Coller, 1985, J. Clin. Invest. 76:101-108; Coller et al., 1991, Blood 77:75-83). Blood smears were made from the samples in some experiments and stained with a standard Wright stain (Hemastain, Geometric Data, Wayne, Pa.).

erythrocytes = assay: Assessment of hemolysis (leucomalachite green); conditions: mean SD; n=6
Protocol: Hemolysis of erythrocytes during thrombo-erythrocyte preparation was assayed by the reaction of any free hemoglobin with leucomalachite green (Kodak; 0.1% p,p'-benzylidenebis-(N,N-dimethylaniline) in 3.3 M acetic acid). The resulting compound was detected by absorbance at 617 nm, a wavelength that is not interfered with by the mal-sac-HNSA dianion. Standards were prepared by lysing known amounts of erythrocytes in deionized water. The assay consisted of 10 μl of sample (the supernatant of the reaction mixture after centrifuging to remove intact erythrocytes), 1 ml of leucomalachite green, and 1 ml of 0.1% […]. After 10 min the absorbance of each sample was read at 617 nm.

gel-filtered platelets = assay: Co-aggregation of thrombo-erythrocytes with gel-filtered platelets in the aggregometer; assay type: cell-based
Protocol: To obtain more quantitative data on the co-aggregation of thrombo-erythrocytes with platelets, the assay was adapted to the aggregometer. PRP was prepared from whole blood anticoagulated with ACD-A (8.5:1.5) and gel-filtered over a column of Sepharose 2B (Pharmacia) using a modified Tyrodes buffer (140 mM NaCl, 3 mM KCl, 12 mM NaHCO3, 0.4 mM NaH2 PO4, 10 mM HEPES, 2 mM MgCl2, 0.2% bovine serum albumin, 5 mM glucose, pH 7.4). Samples consisted of 450 μl of gel-filtered platelets+20 μl of thrombo-erythrocytes (10% hematocrit) or control erythrocytes (i.e., erythrocytes incubated with peptide but no crosslinker). Maximal transmission was set with 450 μl of buffer+20 μl of control erythrocytes. Platelets were activated with ADP (4.3 μM final concentration) or epinephrine (10 μM).

[5] = system: platelets adherent to collagen; assay: Binding of thrombo-erythrocytes to platelets adherent to collagen; assay type: cell-based; conditions: 1 hour, 22° C., 2 mM MgCl2
Protocol: The first stage of the assay, involving the adhesion of platelets to purified type 1 rat skin collagen, was performed as described previously, but without radiolabeling the platelets (Coller et al., 1989, Blood 74:182-192). In brief, a sample of gel-filtered platelets (100 μl; 5.5×10^8 /ml) in the presence of 2 mM MgCl2 was added to microtiter plate wells precoated with collagen and the platelets were allowed to adhere for 1 hour at 22° C. The wells were then emptied and washed×3 with buffer (0.15M NaCl, 0.01M Tris/HCl, 0.5% bovine serum albumin, 5 mM glucose, pH 7.4). Control erythrocytes or thrombo-erythrocytes (50 μl; 10% hematocrit) were then added to the wells in the same buffer, which was now supplemented with 2 mM MgCl2. After 60 min, the wells were emptied and washed×3 as above. The wells were then visually inspected at 400× magnification with the aid of a microscope with Nomarski optics. The effect of 20 μg/ml of an antibody to GPIIb/IIIa that blocks fibrinogen binding and platelet aggregation (10E5) (Coller et al., 1983, J. Clin. Invest. 72:325-338) and 400 μg/ml of the peptide RGDF on thrombo-erythrocyte adhesion to platelets was tested by adding these agents to the thrombo-erythrocytes immediately before the thrombo-erythrocytes were added to the microtiter wells.

7E3 binding to platelets = molecular target: T1, 7E3 binding to platelets (Homo sapiens, UniProt P05106+P08514); assay: Effect of RGD peptides on initial rate of 125I-7E3 binding to platelets
T1 construct: endogenous in cells; host or cells: platelets in citrated platelet-rich plasma (PRP)
T1 sequence (P08514 32-887 limits assumed): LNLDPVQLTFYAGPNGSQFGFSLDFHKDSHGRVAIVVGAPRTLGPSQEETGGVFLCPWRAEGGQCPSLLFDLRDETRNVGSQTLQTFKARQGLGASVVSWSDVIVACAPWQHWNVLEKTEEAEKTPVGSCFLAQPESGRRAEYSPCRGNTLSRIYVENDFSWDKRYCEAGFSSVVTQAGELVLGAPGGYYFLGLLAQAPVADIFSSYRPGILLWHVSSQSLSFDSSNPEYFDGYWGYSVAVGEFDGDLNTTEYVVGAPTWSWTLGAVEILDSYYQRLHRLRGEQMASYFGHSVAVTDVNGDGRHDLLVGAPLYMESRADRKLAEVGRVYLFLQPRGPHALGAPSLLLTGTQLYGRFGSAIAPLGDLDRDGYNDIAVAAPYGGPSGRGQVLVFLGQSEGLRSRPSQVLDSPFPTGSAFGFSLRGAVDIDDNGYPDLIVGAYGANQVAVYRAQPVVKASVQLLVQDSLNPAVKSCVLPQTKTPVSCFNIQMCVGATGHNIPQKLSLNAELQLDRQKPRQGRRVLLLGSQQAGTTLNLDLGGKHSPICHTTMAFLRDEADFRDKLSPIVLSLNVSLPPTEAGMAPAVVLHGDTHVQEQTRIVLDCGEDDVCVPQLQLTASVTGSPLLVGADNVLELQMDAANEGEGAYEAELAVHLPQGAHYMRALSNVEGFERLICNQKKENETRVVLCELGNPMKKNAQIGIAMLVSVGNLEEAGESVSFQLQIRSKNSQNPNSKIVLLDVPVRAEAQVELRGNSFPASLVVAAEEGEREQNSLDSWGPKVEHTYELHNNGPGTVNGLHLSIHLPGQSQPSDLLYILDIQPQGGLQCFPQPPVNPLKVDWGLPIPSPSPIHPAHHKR
T1 sequence (P08514 891-1039 partner limits assumed): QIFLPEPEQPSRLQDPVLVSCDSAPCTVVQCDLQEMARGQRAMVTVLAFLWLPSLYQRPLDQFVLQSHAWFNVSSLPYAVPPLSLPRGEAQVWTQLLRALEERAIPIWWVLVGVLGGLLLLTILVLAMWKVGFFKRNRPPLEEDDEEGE
T1 sequence (P05106 27-788): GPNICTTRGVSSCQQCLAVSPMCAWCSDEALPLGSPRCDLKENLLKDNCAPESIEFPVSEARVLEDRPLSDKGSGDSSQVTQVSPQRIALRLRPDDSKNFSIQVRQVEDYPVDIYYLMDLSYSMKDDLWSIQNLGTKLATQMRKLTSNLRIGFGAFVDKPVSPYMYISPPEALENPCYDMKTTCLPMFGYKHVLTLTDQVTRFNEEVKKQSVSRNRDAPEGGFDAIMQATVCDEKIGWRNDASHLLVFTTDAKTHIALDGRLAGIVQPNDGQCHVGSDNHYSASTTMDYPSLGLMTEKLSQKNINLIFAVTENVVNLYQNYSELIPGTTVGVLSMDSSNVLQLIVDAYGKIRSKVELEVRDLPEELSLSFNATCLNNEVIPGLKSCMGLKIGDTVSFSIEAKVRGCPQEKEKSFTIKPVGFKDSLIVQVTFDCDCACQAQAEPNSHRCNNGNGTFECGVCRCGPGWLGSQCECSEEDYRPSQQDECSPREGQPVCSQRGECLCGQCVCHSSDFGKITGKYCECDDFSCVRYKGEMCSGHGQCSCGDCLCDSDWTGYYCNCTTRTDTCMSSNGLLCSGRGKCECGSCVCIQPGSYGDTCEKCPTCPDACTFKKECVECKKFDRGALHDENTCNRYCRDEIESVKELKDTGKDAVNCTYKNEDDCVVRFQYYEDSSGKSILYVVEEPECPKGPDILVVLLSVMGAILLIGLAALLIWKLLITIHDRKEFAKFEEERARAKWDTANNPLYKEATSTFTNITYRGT
Protocol: (§1) To assess the effect of RGD-containing peptides on the initial rate of binding of 7E3 and 10E5, studies were conducted with ^125 I-7E3 and ^125 I-10E5 essentially as described before (Coller, B.S., 1985, J. Clin. Invest. 76:101). The RGDS or LGGAKQAGDV(R)8 RGDV peptide was incubated at 22° C. with citrated PRP (~3×10^8 /ml) for 1 to 5 min at various concentrations and then non-saturating concentrations of the antibodies (1.5-2.5 μg/ml) were added for 1 to 2 min. The bound antibody was separated from the free by centrifugation of the PRP through 20% sucrose and both the platelet pellet and the supernatant were counted. Results were expressed as either an increase or decrease in antibody binding as compared to a buffer control.

[6] = molecular target: T2, 10E5 binding to platelets (Homo sapiens, UniProt P05106+P08514); assay: Effect of RGD peptides on initial rate of 125I-10E5 binding to platelets; conditions: similar concentrations (up to 5 mM); one experiment
T2 construct: endogenous in cells; host or cells: platelets in citrated platelet-rich plasma (PRP)
T2 sequence (P08514 32-887 limits assumed): as the sequence (P08514 32-887 limits assumed) above
T2 sequence (P08514 891-1039 partner limits assumed): as the sequence (P08514 891-1039 partner limits assumed) above
T2 sequence (P05106 27-788): as the sequence (P05106 27-788) above
Protocol: as §1

CCCCC[C@H](O)/C=C/[C@H]1[C@H](O)CC(=O)[C@@H]1CCCCCCC(=O)O [PGE1]
effect of preincubation of platelets on serotonin release induced by (G)n -RGDF beads (platelets [1]): abolished release

N=C(N)NCCC[C@H](NC(=O)CNC(=O)CNC(=O)CNC(=O)CNC(=O)CNC(=O)CNC(=O)CNC(=O)CNC(=O)CNC(=O)CNC(=O)CNC(=O)CNC(=O)CNC(=O)CNC(=O)CNC(=O)CNC(=O)CN)C(=O)NCC(=O)N[C@@H](CC(=O)O)C(=O)N[C@@H](Cc1ccccc1)C(N)=O [G17 -RGDF] (H-GGGGGGGGGGGGGGGGGRGDF-NH2)
solubility in 0.1% trifluoroacetic acid [2]: fully soluble | solubility in the acetate buffer [2]: only partially soluble

CC(=O)Oc1ccccc1C(=O)O [acetylsalicylic acid]
effect of preincubation of platelets on serotonin release induced by (G)n -RGDF beads (platelets [1]): did not change this pattern

N=C(N)NCCC[C@H](NC(=O)CNC(=O)CNC(=O)CNC(=O)CNC(=O)CNC(=O)CNC(=O)CNC(=O)CNC(=O)CNC(=O)CNC(=O)CNC(=O)CNC(=O)CN)C(=O)NCC(=O)N[C@@H](CC(=O)O)C(=O)N[C@@H](Cc1ccccc1)C(N)=O [G13 -RGDF]
solubility in 0.1% trifluoroacetic acid [2]: fully soluble | solubility in the acetate buffer [2]: only partially soluble

N=C(N)NCCC[C@H](NC(=O)CNC(=O)CNC(=O)CNC(=O)CNC(=O)CNC(=O)CNC(=O)CNC(=O)CNC(=O)CNC(=O)CNC(=O)CNC(=O)CNC(=O)CNC(=O)CNC(=O)CNC(=O)CNC(=O)CNC(=O)CNC(=O)CN)C(=O)NCC(=O)N[C@@H](CC(=O)O)C(=O)N[C@@H](Cc1ccccc1)C(N)=O [G19 -RGDF] (H-GGGGGGGGGGGGGGGGGGGRGDF-NH2)
solubility in 0.1% trifluoroacetic acid [2]: fully soluble | solubility in the acetate buffer [2]: only partially soluble

N=C(N)NCCC[C@H](NC(=O)CNC(=O)CNC(=O)CNC(=O)CNC(=O)CNC(=O)CNC(=O)CNC(=O)CNC(=O)CNC(=O)CNC(=O)CN)C(=O)NCC(=O)N[C@@H](CC(=O)O)C(=O)N[C@@H](Cc1ccccc1)C(N)=O [G11 -RGDF]
solubility in the acetate buffer ([3]; 0.05M Na acetate buffer, pH 6.5): only partially soluble | solubility in 0.1% trifluoroacetic acid ([3]; pH 2.5, 22° C. or 37° C.): fully soluble

PAC-1
inhibition of agglutination of G1 -RGDF and G3 -RGDF beads (platelets [4]): effectively inhibited | Inhibition of G9 -RGDF Bead Agglutination (%) +ADP (platelets [4]; antibody 60 μg/ml, 30 min): 8% | inhibition of the interaction of platelets in PRP with G1 -RGDF, G3 -RGDF, and G5 -RGDF beads (platelets [4]; even with ADP activation): > 90%

thrombo-erythrocytes: erythrocytes covalently conjugated through Mal-Sac-HNSA to the peptide acetyl-Cys-Gly-Gly-Arg-Gly-Asp-Phe-amide (Ac-CGGRGDF-NH2) (also: conjugated to erythrocytes via Mal-Sac-HNSA)
platelet-thrombo-erythrocyte co-aggregation (activated platelets; PRP with ADP, 120 min crosslinking, more than 20 experiments): positive response | interaction with platelets (activated platelets; no agonist added): did not interact with platelets | erythrocyte hemolysis in supernatant fluid after the thrombo-erythrocyte reaction (erythrocytes): 0.40±0.09% | interaction with platelets (aggregometer) (gel-filtered platelets; ADP-activated gel-filtered platelets, 4.3 μM ADP): interact with ADP-activated platelets | interaction with platelets (aggregometer) (gel-filtered platelets; unactivated gel-filtered platelets, stirring, 37° C.): did not interact with unactivated platelets | binding to platelets adherent to collagen [5]: formed a dense lawn on top of the platelet lawn; also recorded: bound extensively to the adherent platelets

O=C(O)CN(CCN(CC(=O)O)CC(=O)O)CC(=O)O [EDTA, reference compound]
bead agglutination in the presence of the agent (platelets [4]): no agglutination at all | effect on platelet-thrombo-erythrocyte co-aggregation (activated platelets; ADP-activated PRP preincubated with 10 mM EDTA, 300 μg/ml RGDF or antibody 7E3): inhibited

RGDS
increase in initial rate of 7E3 binding (7E3 binding to platelets; peptide 2.5 mM, n=1): 63% | increase in initial rate of 7E3 binding (7E3 binding to platelets; peptide 5 mM, citrated PRP, n=2): 66% | increase in initial rate of 7E3 binding (7E3 binding to platelets; peptide 0.5-1 mM, n=4): 21% | decrease in rate of 10E5 binding [6]: 5%

N=C(N)NCCC[C@H](NC(=O)CNC(=O)CNC(=O)CNC(=O)CNC(=O)CNC(=O)CNC(=O)CNC(=O)CNC(=O)CNC(=O)CNC(=O)CNC(=O)CNC(=O)CNC(=O)CNC(=O)CN)C(=O)NCC(=O)N[C@@H](CC(=O)O)C(=O)N[C@@H](Cc1ccccc1)C(N)=O [G15 -RGDF] (H-GGGGGGGGGGGGGGGRGDF-NH2)
solubility in 0.1% trifluoroacetic acid [2]: fully soluble | solubility in the acetate buffer [2]: only partially soluble

Y-HHLGGAKQAGDV (N-terminal added tyrosine) [Fibrinogen Dodecapeptide (+Tyr), fibrinogen γ-chain dodecapeptide (amino acids 400-411) with an added amino-terminal tyrosine]
Inhibition of G9 -RGDF Bead Agglutination (%) (platelets [4]; peptide 1.8 × 10^-3 M): 13% | Inhibition of G9 -RGDF Bead Agglutination (%) (platelets [4]; peptide 3.6 × 10^-3 M): 67% | Inhibition of G9 -RGDF Bead Agglutination (%) (platelets [4]; peptide ≤4.5 × 10^-4 M): 0%
